{
  "source": "patent US20240148821A1",
  "about": "“PHARMACEUTICAL USE OF CYCLIC PEPTIDE COMPOUND” (CHUGAI SEIYAKU KABUSHIKI KAISHA, priority 2021, published 2024)",
  "note": "Numbered stars: 1 amine (or outer) side, 2 acyl side, 3 side chain; on linkers, the order of the positions; unused ones are H or OH. Bridge positions count the residues as written; N and C are the ends. Square brackets hold non-standard residues; d marks the D form. Peptide text beside a SMILES is read from it. * marks the point of attachment. hPhe(3-Cl-4-CF3) = N[C@@H](CCc1ccc(C(F)(F)F)c(Cl)c1)C(=O)O; X111 = CN([C@@H](CCC1CCOCC1)C(=O)[*:2])[*:1]; X74 = CC(C)(O)C=CCN(CC(=O)[*:2])[*:1]; NMeCha = CN[C@@H](CC1CCCCC1)C(=O)O; NMeChg = CN[C@H](C(=O)O)C1CCCCC1; X43 = O=C(CN(CCCCCO)[*:1])[*:2]; NMeD = CN[C@@H](CC(=O)O)C(=O)O; NMeL = CN[C@@H](CC(C)C)C(=O)O; Piperidide = C1CCN(*)CC1; Ac5c = NC1(C(=O)O)CCCC1; Sar = CNCC(=O)O",
  "data": [
    {"biological_target": "protein-protein interaction between Kras and SOS1 (biotin-tagged human Kras loaded with GDP, His-tagged human SOS1) (Homo sapiens (Human), UniProt P01116, G12D)", "experiment": "Protein-protein interaction inhibition between Kras and SOS1 (KrasG12D-SOS PPI) using AlphaScreen;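 also: kras produced in E. coli, Ni-coupled donor beads and streptavidin acceptor beads, excitation 680 nm with emission detected at 520–620 nm via singlet oxygen transfer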", "type": "biochemical", "details": "AlphaScreen; biotin-tagged human Kras loaded with GDP, His-tagged human SOS1; read-out: KRAS G12D-SOS PPI IC50", "units": {"IC50": "nM"}, "values": [
      {"compound": "CC[C@H](C)[C@@H]1NC(=O)[C@H](CC(C)C)N(C)C(=O)C[C@@H](C(=O)N2CCCCC2)N(C)C(=O)[C@H](C2CCCCC2)N(C)C(=O)C2(CCCC2)NC(=O)CN(CC=CC(C)(C)O)C(=O)[C@H](CCc2ccc(C(F)(F)F)c(Cl)c2)NC(=O)CN(C)C(=O)[C@H](CC2CCCCC2)N(C)C(=O)CN(C)C(=O)CN(C)C1=O", "note": "[Compound 2047, (11S,17S,26S,29S,33S,36S)-11-[2-[3-chloro-4-(trifluoromethyl)phenyl]ethyl]-36-cyclohexyl-17-(cyclohexylmethyl)-9-(4-hydroxy-4-methyl-pent-2-enyl)-29-isobutyl-15,18,21,24,30,34,37-heptamethyl-26[(1S)-1-methylpropyl]-33-(piperidine-1-carbonyl)-6,9,12,15,18,21,24,27,30,34,37-undecazaspiro[4.33]octatriacontane-7,10,13,16,19,22,25,28,31,35,38-undecone] ([NMeL]I[Sar][Sar][NMeCha][Sar][hPhe(3-Cl-4-CF3)][X74][Ac5c][NMeChg][NMeD]-Piperidide; lactam N-11)", "IC50": 5.7},
      {"compound": "CC[C@H](C)[C@@H]1NC(=O)[C@H](CC(C)C)N(C)C(=O)C[C@@H](C(=O)N2CCCCC2)N(C)C(=O)[C@H](C2CCCCC2)N(C)C(=O)C2(CCCC2)NC(=O)[C@H](CCC2CCOCC2)N(C)C(=O)[C@H](CCc2ccc(C(F)(F)F)c(Cl)c2)NC(=O)CN(C)C(=O)[C@H](CC2CCCCC2)N(C)C(=O)CN(C)C(=O)CN(C)C1=O", "note": "[Compound 2048, (8S,11S,17S,26S,29S,33S,36S)-11-[2-[3-chloro-4-(trifluoromethyl)phenyl]ethyl]-36-cyclohexyl-17-(cyclohexylmethyl)-29-isobutyl-9,15,18,21,24,30,34,37-octamethyl-26-[(1S)-1-methylpropyl]-33-(piperidine-1-carbonyl)-8-(2-tetrahydropyran-4-ylethyl)-6,9,12,15,18,21,24,27,30,34,37-undecazaspiro[4.33]octatriacontane-7,10,13,16,19,22,25,28,31,35,38-undecone] ([NMeL]I[Sar][Sar][NMeCha][Sar][hPhe(3-Cl-4-CF3)][X111][Ac5c][NMeChg][NMeD]-Piperidide; lactam N-11)", "IC50": 3.5},
      {"compound": "CC[C@H](C)[C@@H]1NC(=O)[C@H](CC(C)C)N(C)C(=O)C[C@@H](C(=O)N2CCCCC2)N(C)C(=O)[C@H](C2CCCCC2)N(C)C(=O)C2(CCCC2)NC(=O)CN(CCCCCO)C(=O)[C@H](CCc2ccc(C(F)(F)F)c(Cl)c2)NC(=O)CN(C)C(=O)[C@H](CC2CCCCC2)N(C)C(=O)CN(C)C(=O)CN(C)C1=O", "note": "[Compound 2049, (11S,17S,26S,29S,33S,36S)-11-[2-[3-chloro-4-(trifluoromethyl)phenyl]ethyl]-36-cyclohexyl-17-(cyclohexylmethyl)-9-(5-hydroxypentyl)-29-isobutyl-15,18,21,24,30,34,37-heptamethyl-26-[(1S)-1-methylpropyl]-33-(piperidine-1-carbonyl)-6,9,12,15,18,21,24,27,30,34,37-undecazaspiro[4.33]octatriacontane-7,10,13,16,19,22,25,28,31,35,38-undecone] ([NMeL]I[Sar][Sar][NMeCha][Sar][hPhe(3-Cl-4-CF3)][X43][Ac5c][NMeChg][NMeD]-Piperidide; lactam N-11)", "IC50": 4}
    ]}
  ]
}
